Test results taken from US20090136624A1, “LACTIC ACID BACTERIA PRODUCING NISIN AT HIGH CONCENTRATION AND METHOD FOR SELECTING THE SAME” (Ajinomoto Co., Inc., priority 2004, published 2009).

Key:
[1] = tested on: Nisin Z-producing strain (parent strain); experiment: Growth of parent strain on Nisin-containing M17 medium (MIC); type: cell-based, Lactococcus lactis; details: 30° C., 2 days
Method: A Nisin Z-producing strain (parent strain shown in Table 3) separated from its native environment was plated on M17 medium (manufactured by Difco) prepared such that a Nisin concentration became 1,000, 2,000, 5,000 or 10,000 IU/mL, and was cultured at 30° C. for 2 days. This strain grew in M17 medium having a Nisin concentration of 1,000 or 2,000 IU/mL, but not in M17 medium having a Nisin concentration of 5,000 or 10,000 IU/mL. From the results, it was confirmed that the minimum growth inhibitory concentration (MIC) of this strain to Nisin was 5,000 IU/mL.

[2] = tested on: Nisin Z-producing lactic acid bacteria (mutated strain); experiment: Growth of NTG-mutated Nisin Z-producing lactic acid bacteria in Nisin-containing M17 medium; type: cell-based, Lactococcus lactis
Method: The Nisin Z-producing lactic acid bacteria separated from its native environment were precultured in M17 medium, and the lactic acid bacteria were treated with 500 μg/mL of NTG to induce mutation.

## Nisin
[1]
  minimum growth inhibitory concentration (MIC) of this strain to Nisin: 5,000 IU/mL
[2]; Nisin conc. 1,000 IU/ml
  Growth number: 1.20E+09 cell/ml
[2]; Nisin conc. 2,000 IU/ml
  Growth number: 1.20E+09 cell/ml
[2]; Nisin conc. 4,000 IU/ml
  Growth number: 1.20E+09 cell/ml
[2]; Nisin conc. 8,000 IU/ml
  Growth number: 7.00E+08 cell/ml
[2]; Nisin conc. 10,000 IU/ml
  Growth number: 1.14E+08 cell/ml
[2]; Nisin conc. 20,000 IU/ml
  Growth number: 3.21E+07 cell/ml
[2]; Nisin conc. 40,000 IU/ml
  Growth number: 9.35E+05 cell/ml
[2]; Nisin conc. 80,000 IU/ml
  Growth number: 1.16E+03 cell/ml
[2]; Nisin conc. 100,000 IU/ml
  Growth number: 4.76E+02 cell/ml
